Source: US20100260852A1, “LAXATIVE AGENT” (priority 2007, published 2010)

How the values were obtained:
Assay type in all cases: in vivo, rat
Details in all cases: 300 mg/Kg p.o.
male rats (SPF) [1] = assay: Water immersion stress gastric mucosa damage test
Protocol: A water immersion stress gastric mucosa damage test was conducted on male rats (SPF) using the composite magnesium oxide particles obtained in Example 5. For comparison, magnesium oxide manufactured by Kyowa Chemical Industry Co., Ltd. was used.
(§1) administration route: oral administration applied dose: 5 mL/Kg administration means: administered by using a disposable injection cylinder and a sonde for oral administration administration time: administered 60 minutes before the preparation of a gastric mucosa damaged model
(§2) After about 24 hours of fasting, the rats were put into a stress cage (manufactured by Natsume Seisakusho Co., Ltd.), and the cage was immersed in a water tank at 23° C. 6 hours after that, the blood was removed from the rats to kill them under anesthesia with pentobarbital sodium (40 mg/Kg, i.p.), and the stomachs of these rats were extracted. 10 mL of a 1% formalin solution was injected into the stomachs to immerse them in the solution for 10 minutes or more. The stomachs were cut open along the greater curvature to measure the length (mm) of a damage by a stereomicroscope. The total of damages of each rat was taken as the damage coefficient of the rat.

male rats (SPF) [2] = assay: Aspirin-inducted gastric mucosa damage test
Protocol: as §1, §2
An aspirin-inducted gastric mucosa damage test was conducted on male rats (SPF) by using the composite magnesium oxide particles obtained in Example 5. For comparison, magnesium oxide manufactured by Kyowa Chemical Industry Co., Ltd. was used.
After about 24 hours of fasting, 125 mg/Kg of aspirin (62.5 mg/mL: suspended by using a methylcellulose aqueous solution) was orally administered to each rat twice every 2 hours. […]

male rats (SPF) [3] = assay: Indometacin-inducted gastric mucosa damage test
Protocol: as §1, §2
An indometacin-inducted gastric mucosa damage test was conducted on male rats (SPF) by using the composite magnesium oxide particles obtained in Example 5. For comparison, magnesium oxide manufactured by Kyowa Chemical Industry Co., Ltd. was used.
After about 24 hours of fasting, 30 mg/Kg of indometacin (15 mg/mL: suspended by using a 0.5% methylcellulose aqueous solution) was subcutaneously administered to each rat. […]

male rats (SPF) [4] = assay: Ethanol-inducted gastric mucosa damage test
Protocol: as §1, §2
An ethanol-inducted gastric mucosa damage test was conducted on male rats (SPF) by using the composite magnesium oxide particles obtained in Example 5. For comparison, magnesium oxide manufactured by Kyowa Chemical Industry Co., Ltd. was used.
After about 24 hours of fasting, 1 mL of ethanol (99.5%) was orally administered to each rat. […]

male rats (SPF) [5] = assay: Gastric ulceration test (acetic acid ulceration models)
Protocol: The influence of the composite magnesium oxide particles obtained in Example 3 upon gastric ulceration was investigated using male rats (SPF). For comparison, magnesium oxide particles (MgO) manufactured by Kyowa Chemical Industry Co., Ltd. were used. The rats were abdominally operated under anesthesia with pentobarbital sodium (10 mg/Kg, i.p.), 30 μL of 20% acetic acid was injected into the submucosal coat at the boundary between the body of stomach and the vestibular region of the pyloric from the serosal side to prepare acetic acid ulceration models. […] On the day following the last administration, the stomachs of the models were extracted under anesthesia with pentobarbital sodium (40 mg/Kg, i.p.) to measure the long diameter and short diameter (mm) of an ulcer.

[O]=[Mg] [Comparative example, magnesium oxide]
Damage coefficient (Lesions) (male rats (SPF) [1]; 60 min before, water immersion stress 23° C., 6 hours, 6 rats): 18.1 ± 3.6 mm
Inhibition ratio (male rats (SPF) [1]; water immersion stress): 56%
Damage coefficient (Lesions) (male rats (SPF) [2]; aspirin 125 mg/Kg orally twice, 4 hours after second, 6 rats): 27.8 ± 4.3 mm
Inhibition ratio (male rats (SPF) [2]; aspirin-inducted): 43%
Damage coefficient (Lesions) (male rats (SPF) [3]; indometacin 30 mg/Kg s.c., 5 hours, 6 rats): 0.0 ± 0.0 mm
Inhibition ratio (male rats (SPF) [3]; indometacin-inducted): 100%
Damage coefficient (Lesions) (male rats (SPF) [4]; 1 mL ethanol (99.5%) orally, 1 hour, 6 rats): 25.5 ± 8.9 mm
Inhibition ratio (male rats (SPF) [4]; ethanol-inducted): 48%
Inhibition ratio of gastric lesion (male rats (SPF) [5]): 19%
Damage coefficient (Lesions area) (male rats (SPF) [5]; once each day for 10 days, 6 rats): 5.2 ± 1.0 mm^2
